Data published in ChEMBL document CHEMBL4145634, “Discovery of Janus Kinase 2 (JAK2) and Histone Deacetylase (HDAC) Dual Inhibitors as a Novel Strategy for the Combinational Treatment of Leukemia and Invasive Fungal Infections” (J Med Chem, 2018).
In brackets after ≈: the same amount, converted by molar mass. Activity calls are given as the source filed them. The rule behind the calls is not given here.

Assays:
Candida albicans [1] = assay: microbe, parasite or virus in culture; type: functional; settings: Candida albicans, 100, 48 h
Description: Antifungal activity against FLC resistant Candida albicans 100 assessed as fluconazol MIC50 after 48 hrs by checkerboard microdilution method

[2] = biological target: Tyrosine-protein kinase JAK2 (Homo sapiens, UniProt O60674); assay: Inhibition of JAK2 (unknown origin) using FAM-labeled peptide as substrate preincubated for 10 mins followed by substrate addition and measured after 25 mins in presence of ATP
Candida albicans [3] = assay: microbe, parasite or virus in culture; type: functional; settings: Candida albicans, 0710922, 48 h
Description: Antifungal activity against FLC resistant Candida albicans 0710922 after 48 hrs in presence of fluconazol by checkerboard microdilution method

Candida albicans [4] = assay: Synergistic antifungal activity against FLC resistant Candida albicans 0304103 assessed as FIC index after 48 hrs by checkerboard microdilution method; type: functional
Candida albicans [5] = assay: microbe, parasite or virus in culture; type: functional; settings: Candida albicans, 0304103, 48 h
Description: Antifungal activity against FLC resistant Candida albicans 0304103 assessed as fluconazol MIC50 after 48 hrs by checkerboard microdilution method

Candida albicans [6] = assay: microbe, parasite or virus in culture; type: functional; settings: Candida albicans, 0304103, 48 h; remark: listed apart in the source
Description: Antifungal activity against FLC resistant Candida albicans 0304103 after 48 hrs by checkerboard microdilution method

Candida albicans [7] = assay: microbe, parasite or virus in culture; type: functional; settings: Candida albicans, 0710922, 48 h; remark: listed apart in the source
Description: Antifungal activity against FLC resistant Candida albicans 0710922 after 48 hrs by checkerboard microdilution method

Histone deacetylase 1 = Histone deacetylase 1 (Homo sapiens, UniProt Q13547); assay: Inhibition of full length human recombinant HDAC1 expressed in baculovirus expression system using (Ac-Leu-Gly-Lys(Ac)-AMC as substrate preincubated for 5 mins followed by substrate addition and measured after 30 mins by fluorescence assay
K562 [8] = assay: Antiproliferative activity against human K562 cells after 48 hrs by CCK-8 assay; type: functional, cell-based; settings: K562, 48 h
Candida albicans [9] = assay: Synergistic antifungal activity against FLC resistant Candida albicans 100 assessed as FIC index after 48 hrs by checkerboard microdilution method; type: functional
Candida albicans [10] = assay: microbe, parasite or virus in culture; type: functional; settings: Candida albicans, 0710922, 48 h; remark: listed apart in the source
Description: Antifungal activity against FLC resistant Candida albicans 0710922 assessed as fluconazol MIC50 after 48 hrs by checkerboard microdilution method

Candida albicans [11] = assay: Synergistic antifungal activity against FLC resistant Candida albicans 0710922 assessed as FIC index after 48 hrs by checkerboard microdilution method; type: functional
HEL [12] = assay: Antiproliferative activity against human HEL cells after 48 hrs by CCK-8 assay; type: functional, cell-based
Candida albicans [13] = assay: microbe, parasite or virus in culture; type: functional; settings: Candida albicans, 0304103, 48 h; remark: listed apart in the source
Description: Antifungal activity against FLC resistant Candida albicans 0304103 after 48 hrs in presence of fluconazol by checkerboard microdilution method

Candida albicans [14] = assay: Antifungal activity against FLC resistant Candida albicans 100 after 48 hrs in presence of fluconazol by checkerboard microdilution method; type: functional; settings: Candida albicans, 100, 48 h
Candida albicans [15] = assay: Antifungal activity against FLC resistant Candida albicans 100 after 48 hrs by checkerboard microdilution method; type: functional; settings: Candida albicans, 100, 48 h
HL-60 [16] = assay: Antiproliferative activity against human HL60 cells after 48 hrs by CCK-8 assay; type: functional, cell-based; settings: HL-60, 48 h
Mus musculus [17] = assay: Protection against spleen enlargement in SCID mouse xenografted with human HEL cells at 10 mg/kg, ip qd; type: functional, organism-based
HL-60 [18] = assay: Antiproliferative activity against human HL60 cells after 48 hrs in presence of JAK2 inhibitor CYT-387 by CCK-8 assay; type: functional, cell-based; settings: HL-60, 48 h
HEL [19] = assay: Antitumor activity in human HEL cells xenografted in SCID mouse assessed as mouse survival time at 10 mg/kg, ip qd; type: functional
Mus musculus [20] = assay: In vivo antifungal activity against FLC resistant Candida albicans 0304103 infected in ICR mouse assessed as mouse survival at 5 mg/kg, ip qd up to 20 days in co-treated with 1 mg/kg, ip qd fluconazol (reference value: 4.5 day); type: functional
Mus musculus [21] = assay: In vivo antifungal activity against FLC resistant Candida albicans 0304103 infected in ICR mouse assessed as mouse survival at 5 mg/kg, ip qd up to 20 days (reference value: 4.5 day); type: functional, organism-based
HEL [22] = assay: Antitumor activity against human HEL cells xenografted in BALB/C nude mouse assessed as tumor growth inhibition at 10 mg/kg, ip bid treated for 21 consecutive days relative to control; type: functional; settings: read-out: TGI
K562 [23] = assay: Antiproliferative activity against human K562 cells after 48 hrs in presence of JAK2 inhibitor CYT-387 by CCK-8 assay; type: functional, cell-based; settings: K562, 48 h
HEL [24] = assay: Antiproliferative activity against human HEL cells after 48 hrs in presence of JAK2 inhibitor CYT-387 by CCK-8 assay; type: functional, cell-based

Chain of Tyrosine-protein kinase JAK2 (O60674 whole entry): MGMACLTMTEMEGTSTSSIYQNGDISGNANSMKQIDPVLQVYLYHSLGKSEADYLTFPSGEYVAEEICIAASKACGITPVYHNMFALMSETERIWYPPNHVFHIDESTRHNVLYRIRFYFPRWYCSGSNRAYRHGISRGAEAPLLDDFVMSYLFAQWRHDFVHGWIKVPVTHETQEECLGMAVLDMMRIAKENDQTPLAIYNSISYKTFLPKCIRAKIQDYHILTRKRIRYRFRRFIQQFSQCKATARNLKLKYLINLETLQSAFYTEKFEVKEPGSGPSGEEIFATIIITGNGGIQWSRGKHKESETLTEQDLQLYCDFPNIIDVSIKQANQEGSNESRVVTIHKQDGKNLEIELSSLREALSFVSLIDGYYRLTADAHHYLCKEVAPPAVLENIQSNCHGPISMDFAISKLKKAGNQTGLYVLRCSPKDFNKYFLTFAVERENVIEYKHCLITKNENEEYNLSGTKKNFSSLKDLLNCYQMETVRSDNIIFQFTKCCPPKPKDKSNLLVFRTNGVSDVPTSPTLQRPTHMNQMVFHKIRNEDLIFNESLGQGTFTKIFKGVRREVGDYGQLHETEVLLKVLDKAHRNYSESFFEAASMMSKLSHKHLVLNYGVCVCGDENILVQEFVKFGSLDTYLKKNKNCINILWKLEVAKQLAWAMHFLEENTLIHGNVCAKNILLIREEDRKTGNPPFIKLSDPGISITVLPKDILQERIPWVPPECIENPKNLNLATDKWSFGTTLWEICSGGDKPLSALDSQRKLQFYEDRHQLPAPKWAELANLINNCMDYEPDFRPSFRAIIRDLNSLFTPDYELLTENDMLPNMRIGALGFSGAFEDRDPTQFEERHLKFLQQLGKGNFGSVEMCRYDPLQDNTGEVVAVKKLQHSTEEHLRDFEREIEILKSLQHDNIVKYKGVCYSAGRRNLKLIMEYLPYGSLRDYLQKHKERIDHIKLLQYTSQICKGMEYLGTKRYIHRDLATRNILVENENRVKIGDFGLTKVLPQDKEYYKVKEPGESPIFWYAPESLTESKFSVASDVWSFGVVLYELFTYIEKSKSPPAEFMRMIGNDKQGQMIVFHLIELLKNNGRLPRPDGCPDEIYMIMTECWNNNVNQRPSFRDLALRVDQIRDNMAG
Chain of Histone deacetylase 1 (Q13547 whole entry): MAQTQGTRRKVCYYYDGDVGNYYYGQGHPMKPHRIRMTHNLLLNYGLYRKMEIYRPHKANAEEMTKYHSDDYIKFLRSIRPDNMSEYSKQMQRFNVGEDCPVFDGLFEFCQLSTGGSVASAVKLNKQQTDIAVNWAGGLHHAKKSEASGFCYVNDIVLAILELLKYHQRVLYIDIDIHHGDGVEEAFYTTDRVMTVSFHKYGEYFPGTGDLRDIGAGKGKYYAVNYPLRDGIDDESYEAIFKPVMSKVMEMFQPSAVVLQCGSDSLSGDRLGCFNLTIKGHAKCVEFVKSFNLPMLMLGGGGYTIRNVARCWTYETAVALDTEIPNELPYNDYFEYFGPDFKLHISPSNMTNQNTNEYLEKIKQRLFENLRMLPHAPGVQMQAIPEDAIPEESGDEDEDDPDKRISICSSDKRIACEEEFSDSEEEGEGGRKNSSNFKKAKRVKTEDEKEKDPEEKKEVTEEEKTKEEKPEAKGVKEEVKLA

Compound	MIC50 (Candida albicans [1]) [µg/mL]	IC50 [2] [µM]	MIC50 (Candida albicans [3]) [µg/mL]	fractional inhibitory concentration index (FICI) (Candida albicans [4])	MIC50 (Candida albicans [5]) [µg/mL]	MIC50 (Candida albicans [6]) [µg/mL]	MIC50 (Candida albicans [7]) [µg/mL]	IC50 (Histone deacetylase 1) [µM]	IC50 (K562 [8]) [µM]	fractional inhibitory concentration index (FICI) (Candida albicans [9])	MIC50 (Candida albicans [10]) [µg/mL]	fractional inhibitory concentration index (FICI) (Candida albicans [11])	IC50 (HEL [12]) [µM]	MIC50 (Candida albicans [13]) [µg/mL]	MIC50 (Candida albicans [14]) [µg/mL]	MIC50 (Candida albicans [15]) [µg/mL]	IC50 (HL-60 [16]) [µM]	further results
CS(=O)(=O)Nc1ccc(-c2ccnc(Nc3ccc(N4CCC(C(=O)NCc5ccc(C(=O)NO)cc5)CC4)cc3)n2)cc1	1 (≈ 1.62 µM)	0.018	64 (≈ 104 µM)	0.15	2 (≈ 3.25 µM)	> 64	> 64	1.1	10	0.078	0.5 (≈ 0.812 µM)	1.01	6.3	8 (≈ 13 µM)	4	> 64	> 50	
Nc1ccccc1NC(=O)c1ccc(-c2ccnc(Nc3ccc(N4CCOCC4)cc3)n2)cc1	0.5 (≈ 1.07 µM)	0.11	> 64	>2	> 64	> 64	> 64	> 50	> 50	1.01	> 64	>2	> 50	> 64	64	> 64	> 50	
Nc1cc(F)ccc1NC(=O)/C=C/c1cnn(C/C=C/c2ccccc2)c1						> 64	> 64		21.7 to 33.6				21.7 to 33.6			> 64	21.7 to 33.6	Activity (Mus musculus [17]): inactive; IC50 (HL-60 [18]): 1.64 to 4.19 µM; Activity (HEL [19]): inactive; MST (Mus musculus [20]): 5 days; Activity (Mus musculus [21]): inactive; inhibition in vivo at 10 mg/kg (HEL [22]): 16.4%; IC50 (K562 [23]): 1.64 to 4.19 µM; IC50 (HEL [24]): 1.64 to 4.19 µM
N#CCNC(=O)c1ccc(-c2ccnc(Nc3ccc(N4CCC(C(=O)NO)CC4)cc3)n2)cc1	0.5 (≈ 1.06 µM)	0.004	64 (≈ 136 µM)	0.13	0.25 (≈ 0.53 µM)	> 64	> 64	2.7	> 50	0.039	1 (≈ 2.12 µM)	1.02	> 50	8 (≈ 17 µM)	2	> 64	> 50	
CS(=O)(=O)Nc1ccc(-c2ccnc(Nc3ccc(N4CCC(C(=O)NCCCCCC(=O)NO)CC4)cc3)n2)cc1	0.25 (≈ 0.42 µM)	0.003	64 (≈ 107 µM)	0.5	0.5 (≈ 0.839 µM)	32 (≈ 53.7 µM)	> 64	0.35	10	0.5	64 (≈ 107 µM)	2	17	16 (≈ 26.9 µM)	16	32	37	
N#CCNC(=O)c1ccc(-c2ccnc(Nc3ccc(N4CCC(C(=O)Nc5ccc(/C=C/C(=O)NO)cc5)CC4)cc3)n2)cc1	1 (≈ 1.62 µM)	0.015	16 (≈ 25.9 µM)	0.078	1 (≈ 1.62 µM)	> 64	> 64	5.1	> 50	1.02	2 (≈ 3.24 µM)	0.31	> 50	4 (≈ 6.49 µM)	64	> 64	> 50	
CS(=O)(=O)Nc1ccc(-c2ccnc(Nc3ccc(N4CCC(C(=O)NO)CC4)cc3)n2)cc1	1 (≈ 2.07 µM)	0.001	32 (≈ 66.3 µM)	0.07	0.5 (≈ 1.04 µM)	> 64	> 64	2.9	18	0.14	0.25 (≈ 0.518 µM)	0.51	> 50	4 (≈ 8.29 µM)	8	> 64	> 50	
CS(=O)(=O)Nc1ccc(-c2ccnc(Nc3ccc(N4CCC(C(=O)Nc5ccccc5N)CC4)cc3)n2)cc1	64 (≈ 115 µM)	0.002	> 64	>2	> 64	> 64	> 64	2.1	9.5	2	> 64	>2	3.2	> 64	64	> 64	16	
CS(=O)(=O)Nc1ccc(-c2ccnc(Nc3ccc(N4CCC(C(=O)NCCCCC(=O)NO)CC4)cc3)n2)cc1	0.5 (≈ 0.86 µM)	0.001	32 (≈ 55 µM)	0.5	0.5 (≈ 0.86 µM)	32 (≈ 55 µM)	> 64	2.2	11	0.26	0.5 (≈ 0.86 µM)	0.51	8.1	16 (≈ 27.5 µM)	16	> 64	> 50	
CS(=O)(=O)Nc1ccc(-c2ccnc(Nc3ccc(N4CCC(C(=O)NCCCCCCC(=O)NO)CC4)cc3)n2)cc1	0.25 (≈ 0.41 µM)	0.002	32 (≈ 52.5 µM)	0.13	0.5 (≈ 0.82 µM)	> 64	> 64	0.25	8.9	0.13	0.25 (≈ 0.41 µM)	0.5	3.9	8 (≈ 13.1 µM)	8	> 64	12	
CS(=O)(=O)Nc1ccc(-c2ccnc(Nc3ccc(N4CCC(C(=O)Nc5ccc(C(=O)NO)cc5)CC4)cc3)n2)cc1	16 (≈ 26.6 µM)	0.002	> 64	>2	> 64	> 64	> 64	0.38	8.6	1.25	> 64	>2	2	> 64	64	> 64	11	
CS(=O)(=O)Nc1ccc(-c2ccnc(Nc3ccc(N4CCC(C(=O)NCCCC(=O)NO)CC4)cc3)n2)cc1	1 (≈ 1.76 µM)	0.001	32 (≈ 56.4 µM)	0.31	4 (≈ 7.05 µM)	32 (≈ 56.4 µM)	> 64	9.2	12	0.14	0.5 (≈ 0.881 µM)	0.51	12	8 (≈ 14.1 µM)	8	> 64	> 50	
N#CCNC(=O)c1ccc(-c2ccnc(Nc3ccc(N4CCC(C(=O)Nc5ccccc5N)CC4)cc3)n2)cc1	> 64	0.008	64 (≈ 117 µM)	>2	> 64	> 64	> 64	1.7	> 50	>2	64 (≈ 117 µM)	2	6.6	> 64	> 64	> 64	> 50	
N#CCNC(=O)c1ccc(-c2ccnc(Nc3ccc(N4CCC(C(=O)Nc5ccc(C(=O)NO)cc5)CC4)cc3)n2)cc1	2 (≈ 3.39 µM)	0.016	> 64	1.01	0.5 (≈ 0.847 µM)	> 64	> 64	24	> 50	1.03	> 64	>2	> 50	64 (≈ 108 µM)	64	> 64	> 50	
